From patent publication US7439243B2, “Piperazinyl-quinoline derivatives useful for the treatment of CNS disorders” (Glaxo Group Limited, priority 2003, dated 2008)
Structures can show the parent of a compound that is named as a salt. Where two headings read alike, the source gives them in different places.

Biological target: human cloned 5-HT6 receptors (Homo sapiens, UniProt P50406)
Test: 5-HT6 receptor affinity (procedures outlined in WO98/27081)
Format: binding
Text: Compounds can be tested following the procedures outlined in WO98/27081.

Sequence of human cloned 5-HT6 receptors (P50406 whole entry): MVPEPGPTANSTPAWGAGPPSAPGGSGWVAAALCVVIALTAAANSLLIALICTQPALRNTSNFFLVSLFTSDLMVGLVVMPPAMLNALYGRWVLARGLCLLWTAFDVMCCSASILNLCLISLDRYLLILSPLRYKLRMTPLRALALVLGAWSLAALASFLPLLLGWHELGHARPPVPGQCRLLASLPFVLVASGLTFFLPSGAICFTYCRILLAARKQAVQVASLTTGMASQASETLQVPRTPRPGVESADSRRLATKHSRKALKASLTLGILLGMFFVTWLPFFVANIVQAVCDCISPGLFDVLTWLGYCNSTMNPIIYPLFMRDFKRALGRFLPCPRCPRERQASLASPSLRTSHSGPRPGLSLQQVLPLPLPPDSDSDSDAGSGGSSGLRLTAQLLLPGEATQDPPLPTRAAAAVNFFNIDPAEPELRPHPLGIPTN

Ki (human cloned 5-HT6 receptors, read-out: pKi (converted))	Compound	Ki
	Clc1cccc(Cc2cnc3c(N4CCNCC4)cccc3c2)c1 [Example E1, 3-[(3-Chlorophenyl)methyl]-8-(1-piperazinyl)quinoline hydrochloride]	< 0.0316 µM
< 0.0316 µM	O=C(c1cccc(Cl)c1)c1cnc2c(N3CCNCC3)cccc2c1 [Example E2, (3-Chlorophenyl)[8-(1-piperazinyl)-3-quinolinyl]methanone hydrochloride]	
